The values below come from patent publication US20090069180A1 (priority 2006, published 2009).

As a reminder, the melting point is the temperature, or range, at which the solid turns liquid.

One series has as its system Pyricularia oryzae. In kind it is cell-based. The following applies: 125 ppm, microtiter plate, absorption at 405 nm on day 7 after inoculation, relative to active compound-free control.

The molecule `CC1CCCN1c1nc(C#N)nc(Cl)c1/C(Br)=C(\Br)[Si](C)(C)C` (stereo not drawn) [C-1, 4-Chloro-2-cyano-5-((E)-1,2-dibromo-2-trimethylsilylvinyl)-6-(2-methylpyrrolidin-1-yl)-pyrimidine] registered a melting point of 166 to 168 °C. In addition, the relative pathogen growth in the series on Pyricularia oryzae worked out at 0%.

As to `CONC(=N)c1nc(Cl)c(/C(Br)=C(/Cl)Br)c(N2CCCC2C)n1` (stereo not drawn) [C-4, N-Methoxy-4-chlor-5-((E)-2-chloro-1,2-dibromovinyl)-6-(2-methyl-pyrrolidin-1-yl)-2-pyrimidinecarboximidamide], the relative pathogen growth in the series with Pyricularia oryzae stood at 0%.
